SMILES strings stand for the structures.

The nature of the data set: Log P by HPLC on reversed phase columns (EEC directive 79/831 Annex V.A8). The data set is classed as physicochemical. The settings on record: method [a]. The gist of the method: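 Values come from retention times calibrated against alkan-2-ones (3–16 carbons) by linear interpolation, using reversed-phase LC-UV per EEC directive 79/831 Annex V.A8. Acetonitrile gradient 10–95% with 0.1% formic acid [a], 0.001 M ammonium acetate [b] or 0.1% phosphoric acid [c]; several values within one method separated by "+".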
As for `CCNC(=O)SC[C@H](NC(=O)c1sc(Cl)c(Cl)c1Br)C(=O)OC` [1.0530], the LogP was 3.39^[a].

As to `CNC(=S)SC[C@H](NC(=O)c1sc(Cl)c(Cl)c1Br)C(=O)OC` [1.0531], the LogP was 3.56^[a].

As for `CCOC(=O)CC[C@H](NC(=O)c1sc(Br)c(Br)c1Cl)C(=O)OCC` [1.0532], the LogP was 4.23^[a].

As to `COC(=O)[C@H](CSC(=O)N(C)C)NC(=O)c1sc(Br)c(Br)c1F` [1.0533], the LogP is 3.27^[a].

As to `CNC(=S)SC[C@H](NC(=O)c1sc(Br)c(Br)c1F)C(=O)OC` [1.0534], the LogP was 3.24^[a].

With `COC(=O)C(CSC(=O)N(C)C)NC(=O)c1sc(Br)c(Br)c1Cl` (centres unmarked) [1.0535], the LogP is 3.59^[a].

On to `CCNC(=O)SCC(NC(=O)c1sc(Br)c(Br)c1Cl)C(=O)OC` (centres unmarked) [1.0536], for which the LogP was 3.38^[a].

For `CNC(=S)SC[C@H](NC(=O)c1sc(Br)c(Br)c1Cl)C(=O)OC` [1.0537], the LogP was 3.54^[a].

For the molecule `COC(=O)CNC(=S)c1sc(Br)c(Br)c1F` [1.0538], the LogP was 3.74^[a].

Turning to `COC(=O)C1(NC(=O)c2sc(Br)c(Br)c2F)CC1` [1.0539], the LogP is 2.09^[a].

In the case of `COC(=O)C(C)(C)NC(=O)c1sc(Br)c(Br)c1F` [1.0540], the LogP is 3.34^[a].

Take `COC(=O)C1(NC(=O)c2sc(Br)c(Br)c2F)COC1` [1.0541]: the LogP is 2.49^[a].

Turning to `CCOC(=O)CN(O)C(=O)c1sc(Br)c(Br)c1F` [1.0542], the LogP is 2.54^[a].

For `CCNC(=O)SC[C@H](NC(=O)c1sc(Br)c(Br)c1F)C(=O)OC` [1.0543], the LogP was 3.10^[a].

`COC(=O)C(C1CC1)N(O)C(=O)c1sc(Cl)c(Cl)c1Br` (centres unmarked) [1.0544]: the LogP was 3.05^[a].

Turning to `CCOC(=O)C[C@H](NC(=O)c1sc(Br)c(Br)c1Cl)C(=O)OCC` [1.0545], the LogP is 4.15^[a].

Turning to `COC(=O)C[C@H](NC(=O)c1sc(Br)c(Br)c1Cl)C(=O)OC` [1.0546], the LogP is 3.33^[a].

Consider `CCOC(=O)C(CSC(C)=O)NC(=O)c1sc(Cl)c(Cl)c1Br` (centres unmarked) [1.0547], for which the LogP is 3.46^[a].

Take `COC(=O)C[C@H](NC(=O)c1sc(Cl)c(Cl)c1Br)C(=O)OC` [1.0548]: the LogP is 3.33^[a].

Take `COC(=O)CC[C@H](NC(=O)c1sc(Cl)c(Cl)c1Br)C(=O)OC` [1.0549]: the LogP was 3.41^[a].

`CCOC(=O)C(CSC)NC(=O)c1sc(Br)c(Br)c1Cl` (centres unmarked) [1.0550]: the LogP is 4.32^[a].

With `CCOC(=O)C[C@H](NC(=O)c1sc(Cl)c(Cl)c1Br)C(=O)OCC` [1.0551], the LogP was 4.17^[a].

For the molecule `COC(=O)[C@H](CC(=O)OC(C)(C)C)NC(=O)c1sc(Cl)c(Cl)c1Br` [1.0552], the LogP was 4.59^[a].

Consider `COC(=O)C(CCSC(C)=O)NC(=O)c1sc(Br)c(Br)c1F` (centres unmarked) [1.0553], for which the LogP is 3.13^[a].

With `CCOC(=O)C(CSC(C)=O)NC(=O)c1sc(Br)c(Br)c1F` (centres unmarked) [1.0554], the LogP is 3.18^[a].

As to `COC(=O)C[C@H](NC(=O)c1sc(Br)c(Br)c1F)C(=O)OC` [1.0555], the LogP was 2.99^[a].

Regarding `CCOC(=O)C(CSC)NC(=O)c1sc(Br)c(Br)c1F` (centres unmarked) [1.0556], the LogP was 3.87^[a].

Consider `COC(=O)CC[C@H](NC(=O)c1sc(Br)c(Br)c1F)C(=O)OC` [1.0557], for which the LogP was 3.07^[a].

Regarding `CCOC(=O)C[C@H](NC(=O)c1sc(Br)c(Br)c1F)C(=O)OCC` [1.0558], the LogP was 3.76^[a].

For the molecule `CCOC(=O)CC[C@H](NC(=O)c1sc(Br)c(Br)c1F)C(=O)OCC` [1.0559], the LogP is 3.84^[a].

Regarding `COC(=O)[C@H](CC(=O)OC(C)(C)C)NC(=O)c1sc(Br)c(Br)c1F` [1.0560], the LogP was 4.12^[a].

As for `CCOC(=O)C(CSC(C)=O)NC(=O)c1sc(Br)c(Br)c1Cl` (centres unmarked) [1.0561], the LogP is 3.44^[a].

For the molecule `CCOC(=O)CC[C@H](NC(=O)c1sc(Cl)c(Cl)c1Br)C(=O)OCC` [1.0562], the LogP was 4.25^[a].

For the molecule `N#CNC(=O)CNC(=O)c1sc(Br)c(Br)c1F` [1.0563], the LogP was 2.17^[a].

Take `COC(=O)CNC(=O)c1sc(C)c(Cl)c1Cl` [1.0564]: the LogP is 2.45^[a].

As to `COC(=O)C1(NC(=O)c2sc(C#N)c(Br)c2Cl)CCC1` [1.0565], the LogP is 2.98^[a].

In the case of `CCOC(=O)C1(NC(=O)c2sc(C#N)c(Br)c2Cl)CCC1` [1.0566], the LogP was 3.38^[a].

On to `CCCOC(=O)C1(NC(=O)c2sc(C#N)c(Br)c2Cl)CC1` [1.0567], for which the LogP was 3.18^[a].

In the case of `N#Cc1sc(C(=O)NC2(C(=O)OC3CCC3)CC2)c(Cl)c1Br` [1.0568], the LogP is 3.32^[a].

Regarding `N#CCNC(=O)c1sc(C#N)c(Br)c1Cl` [1.0569], the LogP was 2.08^[a].

Regarding `CCOC(=O)CNC(=O)c1sc(C#N)c(Cl)c1Cl` [1.0570], the LogP is 2.60^[a].

Consider `COC(=O)CNC(=O)c1sc(C#N)c(Cl)c1Cl` [1.0571], for which the LogP was 2.20^[a].

`CCOC(=O)C1(NC(=O)c2sc(C#N)c(Cl)c2Cl)CC1` [1.0572]: the LogP was 2.76^[a].

Regarding `COC(=O)C1(NC(=O)c2sc(C#N)c(Cl)c2Cl)CC1` [1.0573], the LogP was 2.40^[a].

`COC(=O)C(C)(C)NC(=O)c1sc(C#N)c(Cl)c1Cl` [1.0574]: the LogP was 2.90^[a].

Take `CCOC(=O)C(NC(=O)c1sc(C#N)c(Cl)c1Cl)C(C)C` (centres unmarked) [1.0575]: the LogP is 3.89^[a].

As to `COC(=O)C(NC(=O)c1sc(C#N)c(Cl)c1Cl)C1CC1` (centres unmarked) [1.0576], the LogP was 3.05^[a].

With `CCOC(=O)C(Cc1ccccc1)NC(=O)c1sc(C#N)c(Cl)c1Cl` (centres unmarked) [1.0577], the LogP was 4.11^[a].

As for `COC(=O)C1(NC(=O)c2sc(C#N)c(Cl)c2Cl)CCC1` [1.0578], the LogP is 2.94^[a].

As to `CCOC(=O)C1(NC(=O)c2sc(C#N)c(Cl)c2Cl)CCC1` [1.0579], the LogP was 3.35^[a].

`CCCOC(=O)C1(NC(=O)c2sc(C#N)c(Cl)c2Cl)CC1` [1.0580]: the LogP was 3.15^[a].

For `N#Cc1sc(C(=O)NC2(C(=O)OC3CCC3)CC2)c(Cl)c1Cl` [1.0581], the LogP was 3.30^[a].

With `N#CCNC(=O)c1sc(C#N)c(Cl)c1Cl` [1.0582], the LogP is 2.04^[a].

For the molecule `CCOC(=O)CNC(=O)c1sc(Cl)c(Br)c1C#N` [1.0583], the LogP was 2.56^[a].

With `COC(=O)CNC(=O)c1sc(Cl)c(Br)c1C#N` [1.0584], the LogP was 2.20^[a].

Regarding `CCOC(=O)C1(NC(=O)c2sc(Cl)c(Br)c2C#N)CC1` [1.0585], the LogP is 2.70^[a].

For `CCOC(=O)C(Cc1ccccc1)NC(=O)c1sc(C#N)c(Br)c1Cl` (centres unmarked) [1.0586], the LogP was 4.13^[a].

Turning to `COC(=O)C(NC(=O)c1sc(C#N)c(Br)c1Cl)C1CC1` (centres unmarked) [1.0587], the LogP was 3.08^[a].

Turning to `CCOC(=O)C(NC(=O)c1sc(C#N)c(Br)c1Cl)C(C)C` (centres unmarked) [1.0588], the LogP is 3.92^[a].

As for `COC(=O)C(C)(C)NC(=O)c1sc(C#N)c(Br)c1Cl` [1.0589], the LogP is 2.93^[a].

On to `Cc1c(C(=O)NC2(C(=O)OC3CCC3)CC2)sc(Cl)c1Br` [1.0590], for which the LogP was 3.81^[a].

With `CCCOC(=O)C1(NC(=O)c2sc(Br)c(Cl)c2F)CC1` [1.0591], the LogP is 3.56^[a].

The values are drawn from patent US12642270B2, “Substituted thiophene carboxamides, thiophene carboxylic acids and derivatives thereof” (Bayer Aktiengesellschaft, priority 2019, dated 2026).
